Laboratory results reported in patent US8354443B2, “Cyclopropane indolinone derivatives” (Hoffmann-La Roche Inc., priority 2009, dated 2013).

system: recombinant AMPK proteins (α1β1γ1, α2β1γ1, α1(1-335), α1(1-394) or α2(1-394)); assay: Scintillation Proximity Assay (AMPK activation); format: biochemical, human; details: effective concentration of activator for 50% of maximal enzyme activity; 2 hr at 30° C.; AMPK form not specified
Text: Recombinant human AMPK α1β1γ1, α2β1γ1 or AMPK a subunit truncations α1 (1-335), α1 (1-394) and α2(1-394) were constructed, expressed and purified as described previously (Pang, T., Zhang, Z. S., Gu, M., Qiu, B. Y., Yu, L. F., Cao, P. R., Shao, W., Su, M. B., Li, J. Y., Nan, F. J., and Li, J. (2008) or purchased from Invitrogen (San Diego, Calif., U.S.A.). Rat liver AMPK heterotrimer enzyme was obtained from Upstate (Billerica, Mass., U.S.A.).
Before the Scintillation Proximity Assay (SPA) assay, 200 nM recombinant AMPK proteins (α1β1γ1, α2β1γ1, α1(1-335), α1(1-394) or α2(1-394)) were fully phosphorylated as described previously (Pang et al., 2008). SPA reactions were performed in 96-well plates at a final volume of 50 μl containing 20 mM Tris-HCl pH 7.5, 5 mM MgCl2, 1 mM DTT, 2 μM biotin-SAMS, 2 μM ATP, 0.2 μCi/well [γ-^33P]ATP, and various amount of activator. Reactions were initiated by the addition of 50 nM recombinant AMPK proteins to the reaction solutions and incubated at 30° C. for 2 hr. After that, reactions were terminated by the addition of 40 μl stop solution containing 80 μg streptavidin-coated SPA beads per well, 50 mM EDTA, 0.1% Triton X-100 in PBS, pH 7.5 and incubated for 1 hr. Finally, a 160 μl suspension solution containing 2.4 M CsCl, 50 mM EDTA, and 0.1% Triton X-100 in PBS (pH 7.5) was added to the reaction solution to suspend SPA beads completely. SPA signals were determined with a Wallac MicroBeta plate counter (PerkinElmer) 30 min later for calculation of the amount of product formed. The amount of products formed in 2 hr was plotted against activator concentrations to determine the effective concentration of the activator (EC50) required for 50% of maximal enzyme activity.

Compound	EC50 [nM]
CN1CCN(C(=O)c2cccc(N3C(=O)[C@]4(C[C@@H]4c4ccc(Cl)cc4)c4ccccc43)c2)CC1 (racemic) [Example 89, (1S,2R) and (1R,2S)-2-(4-chlorophenyl)-1′-(3-(4-methylpiperazine-1-carbonyl)phenyl)spiro[cyclopropane-1,3′-indolin]-2′-one]	1400
CS(=O)(=O)N1CCN(C(=O)c2cccc(N3C(=O)[C@]4(C[C@@H]4c4ccc(Cl)cc4)c4ccccc43)c2)CC1 (racemic) [Example 90, (1R,2S) and (1S,2R)-2-(4-chlorophenyl)-1′-(3-(4-(methylsulfonyl)piperazine-1-carbonyl)phenyl)spiro[cyclopropane-1,3′-indolin]-2′-one]	1470
CS(=O)(=O)NC(=O)c1cccc(N2C(=O)[C@@]3(C[C@@H]3c3ccc(Cl)cc3)c3ccccc32)c1 (racemic) [Example 91, (1R,2R) and (1S,2S)-3-(2-(4-chlorophenyl)-2′-oxospiro[cyclopropane-1,3′-indoline]-1′-yl)-N-(methylsulfonyl)benzamide]	1550
O=C(O)c1cc(N2CCOC2=O)cc(N2C(=O)[C@]3(C[C@H]3c3ccc(Cl)cc3)c3ccccc32)c1 (racemic) [Example 92, (1S,2S) and (1R,2R)-3-(2-(4-chlorophenyl)-2′-oxospiro[cyclopropane-1,3′-indoline]-1′-yl)-5-(2-oxooxazolidin-3-yl)benzoic acid]	870
CS(=O)(=O)c1cc(C(=O)O)cc(N2C(=O)[C@]3(C[C@H]3c3ccc(Cl)cc3)c3ccccc32)c1 (racemic) [Example 93, (1S,2S) and (1R,2R)-3-(2-(4-chlorophenyl)-2′-oxospiro[cyclopropane-1,3′-indoline]-1′-yl)-5-(methylsulfonyl)benzoic acid]	910
O=C(O)c1cc(N2CCCC2=O)cc(N2C(=O)[C@]3(C[C@H]3c3ccc(Cl)cc3)c3ccccc32)c1 (racemic) [Example 94, (1S,2S) and (1R,2R)-3-(2-(4-chlorophenyl)-2′-oxospiro[cyclopropane-1,3′-indoline]-1′-yl)-5-(2-oxopyrrolidin-1-yl)benzoic acid]	1500
CNC(=O)c1cccc(CN2C(=O)[C@@]3(C[C@H]3c3ccc(Cl)cc3)c3ccccc32)c1 (racemic) [Example 110, (1R,2S) and (1S,2R)-3-((2-(4-chlorophenyl)-2′-oxospiro[cyclopropane-1,3′-indoline]-1′-yl)methyl)-N-methylbenzamide]	1370
O=C(NCCCN1CCOCC1)c1cccc(CN2C(=O)[C@@]3(C[C@H]3c3ccc(Cl)cc3)c3ccccc32)c1 (racemic) [Example 112, (1R,2S) and (1S,2R)-3-((2-(4-chlorophenyl)-2′-oxospiro[cyclopropane-1,3′-indoline]-1′-yl)methyl)-N-(3-morpholinopropyl)benzamide]	1270
CN(C)CCN1CCN(C(=O)c2cccc(CN3C(=O)[C@@]4(C[C@H]4c4ccc(Cl)cc4)c4ccccc43)c2)CC1 (racemic) [Example 113, (1R,2S) and (1S,2R)-2-(4-chlorophenyl)-1′-(3-(4-(2-(dimethylamino)ethyl)piperazine-1-carbonyl)benzyl)spiro[cyclopropane-1,3′-indolin]-2′-one]	1840
O=C(NCCN1CCOCC1)c1cccc(CN2C(=O)[C@@]3(C[C@H]3c3ccc(Cl)cc3)c3ccccc32)c1 (racemic) [Example 114, (1R,2S) and (1S,2R)-3-((2-(4-chlorophenyl)-2′-oxospiro[cyclopropane-1,3′-indoline]-1′-yl)methyl)-N-(2-morpholinoethyl)benzamide]	6480
CS(=O)(=O)N1CCN(C(=O)c2cccc(CN3C(=O)[C@@]4(C[C@H]4c4ccc(Cl)cc4)c4ccccc43)c2)CC1 (racemic) [Example 115, (1R,2S) and (1S,2R)-2-(4-chlorophenyl)-1′-(3-(4-(methylsulfonyl)piperazine-1-carbonyl)benzyl)spiro[cyclopropane-1,3′-indolin]-2′-one]	5140
O=C(Nc1cc(C2CC2)n[nH]1)c1cccc(CN2C(=O)[C@]3(C[C@@H]3c3ccc(Cl)cc3)c3ccccc32)c1 (racemic) [Example 116, (1S,2R) and (1R,2S)-3-((2-(4-chlorophenyl)-2′-oxospiro[cyclopropane-1,3′-indoline]-1′-yl)methyl)-N-(3-cyclopropyl-1H-pyrazol-5-yl)benzamide]	4330
O=C(Nc1cc(C2CC2)[nH]n1)c1cccc(CN2C(=O)[C@]3(C[C@@H]3c3ccc(Cl)cc3)c3ccccc32)c1 (racemic) [Example 117, (1S,2R) and (1R,2S)-3-((2-(4-chlorophenyl)-2′-oxospiro[cyclopropane-1,3′-indoline]-1′-yl)methyl)-N-(5-cyclopropyl-1H-pyrazol-3-yl)benzamide]	990
O=C1N(CC2CCNCC2)c2ccccc2[C@@]12C[C@@H]2c1ccc(Cl)cc1 (racemic) [Example 124, (1S,2R) and (1R,2S)-2-(4-chlorophenyl)-1′-(piperidin-4-ylmethyl) Spiro[cyclopropane-1,3′-indolin]-2′-one]	5400
O=C1N(CCN2CCCCC2)c2ccccc2[C@@]12C[C@@H]2c1ccc(Cl)cc1 (racemic) [Example 125, (1S,2R) and (1R,2S)-2-(4-chlorophenyl)-1′-(2-(piperidin-1-yl)ethyl)spiro[cyclopropane-1,3′-indolin]-2′-one]	1750
O=C1N(CCNCCCN2CCOCC2)c2ccccc2[C@@]12C[C@@H]2c1ccc(Cl)cc1 (racemic) [Example 127, (1S,2R) and (1R,2S)-2-(4-chlorophenyl)-1′-(2-(3-morpholinopropylamino)ethyl) spiro[cyclopropane-1,3′-indolin]-2′-one]	4500
O=C1N(CCNCCN2CCOCC2)c2ccccc2[C@@]12C[C@@H]2c1ccc(Cl)cc1 (racemic) [Example 128, (1S,2R) and (1R,2S)-2-(4-chlorophenyl)-1′-(2-(2-morpholinoethylamino)ethyl) spiro[cyclopropane-1,3′-indolin]-2′-one]	2040
O=C1N(CCN2CCN(c3ccncc3)CC2)c2ccccc2[C@@]12C[C@@H]2c1ccc(Cl)cc1 (racemic) [Example 129, (1S,2R) and (1R,2S)-2-(4-chlorophenyl)-1′-(2-(4-(pyridin-4-yl)piperazin-1-yl)ethyl) spiro[cyclopropane-1,3′-indolin]-2′-one]	1680
O=C1N(c2c[nH]cn2)c2ccccc2[C@@]12C[C@@H]2c1ccc(Cl)cc1 (racemic) [Example 131, (1S,2R) and (1R,2S)-2-(4-chlorophenyl)-1′-(1H-imidazol-4-yl)spiro[cyclopropane-1,3′-indolin]-2′-one]	3270
CS(=O)(=O)NC(=O)c1cccc(N2C(=O)[C@]3(C[C@@H]3c3ccc(Cl)cc3)c3ccccc32)c1 (racemic) [Example 132, (1S,2R) and (1R,2S)-3-(2-(4-chlorophenyl)-2′-oxospiro[cyclopropane-1,3′-indoline]-1′-yl)-N-(methylsulfonyl)benzamide]	1550
CN1CCCC1CCNC(=O)c1cccc(CN2C(=O)[C@]3(C[C@@H]3c3ccc(Cl)cc3)c3ccccc32)c1 (stereo partly drawn) [Example 66, 3-(((1S,2R)-2-(4-chlorophenyl)-2′-oxospiro[cyclopropane-1,3′-indoline]-1′-yl)methyl)-N-(2-((S)-1-methylpyrrolidin-2-yl)ethyl)benzamide and 3-(((1R,2S)-2-(4-chlorophenyl)-2′-oxospiro[cyclopropane-1,3′-indoline]-1′-yl)methyl)-N-(2-((5)-1-methylpyrrolidin-2-yl)ethyl)benzamide]	1070
(1R,2R) and (1S,2S)-((2-(4-(methylsulfonyl)phenyl)-2′-oxospiro[cyclopropane-1,3′-indoline]-1′-yl)methyl)benzoic acid [Example 4]	2200
